Residues, ends and D or L forms follow the SMILES beside them.
Legend:
[1] = Oscillatory and flow rheology of hydrogels; format: physicochemical; settings: for Change of storage modulus G′ over one week: 2.0 mM, pH 8.0, 24 h against 1 week at 21 °C; for Recovery of initial G′ within 2 min after strain-induced loss of gel character / Time to complete recovery of the initial G′: after flow curve deformation; for Recovery of initial G′ within 2 min after strain-induced loss of gel character / Time to complete recovery of the initial G′ / Strain above which gel character is lost (G″ > G′) / Strain up to which the gel is linearly viscoelastic / Angular frequency up to which G′ and G″ are frequency-independent: hydrogel after 1 week, 25 °C; for Strain above which gel character is lost (G″ > G′) / Strain up to which the gel is linearly viscoelastic: amplitude sweep 0.01–100% strain; for Slope of viscosity against shear rate (shear thinning): flow curve, hydrogel after 1 week at ambient temperature, measured at 25 °C; for Angular frequency up to which G′ and G″ are frequency-independent: frequency sweep 0.1–100 rad/s
Method: Rheology measurements were performed on an Anton Paar Physica MCR 301 instrument using a CP25-1 (diameter of 25 mm, angle of 1°) cone plate. A water trap was installed to prevent sample evaporation, and then, sample, 150–200 μL, was carefully plated on to the rheometer stage with a tipless 1 mL syringe to minimize gel deformation. Measurements were conducted with a […] gap size at a temperature of 25 °C. All rheological measurements were done at a frequency, ω, of 10 rad/s with data collection every 2 s. Samples were left for 1 h at a steady strain sweep, γ, of 0.5% (within the linear viscoelastic regime for all sequences) for the gel samples to recover a steady state fibril network, as observed by a stabilization in the value of G′. Subsequently, frequency sweep (0.1–100 rad/s), strain sweep (γ = 0.01–100%), and flow curve (0.1–50 s^–1) experiments were conducted. A time experiment in the linear viscoelastic regime (10 rad/s, 0.5%) for a 50 min period after the flow curve was used to estimate the recovery time of the hydrogels.

[2] = SAXS/WAXS of fibrils, elliptical cylinder model fit; format: physicochemical; settings: 2.0 mM, pH 8.0; for Repeated dimension of broad SAXS peak at q = 0.172 Å^–1: 7 days at 21 °C; for Fibril axis ratio / Fibril cross-sectional area / Fibril minor radius (minor semiaxis): SAXS, elliptical cylinder model fit, day 7 at 21 °C
Method: Small- and wide-angle X-ray scattering (SAXS/WAXS) measurements were performed on a SAXSLabs Ganesha pinhole instrument (JJ X-ray System Aps) with an X-ray microsource (Xenocs) and a two-dimensional 300k Pilatus detector (Dectris Ltd., Switzerland). The wavelength, λ, used for all scattering experiments was 1.54 Å, and samples were measured at three sample-to-detector distances. All samples (200 μL) were loaded into a 1.5 mm diameter quartz capillary (Hilgenberg GmbH, Malsfeld, Germany), and the time-averaged scattering intensities were analyzed using a python code. The scattering intensity was corrected to an absolute scale by calibration against water. Supramolecular dimensions were extracted from SAXS data by using the SasView software and fitting the scattering curves to an elliptical-cylinder model (www.sasview.org).

SMILES | Change of storage modulus G′ over one week [1] | G′ of P2 relative to P3 ([1]; after 1 week of incubation) | Recovery of initial G′ within 2 min after strain-induced loss of gel character [1] | Time to complete recovery of the initial G′ [1] [min] | Strain above which gel character is lost (G″ > G′) [1] | Strain up to which the gel is linearly viscoelastic [1] | Slope of viscosity against shear rate (shear thinning) [1] | Angular frequency up to which G′ and G″ are frequency-independent [1] | Repeated dimension of broad SAXS peak at q = 0.172 Å^–1 [2] [nm] | Fibril axis ratio [2] | Fibril cross-sectional area [2] [nm^2] | Fibril minor radius (minor semiaxis) [2] [nm]
CC[C@H](C)[C@H](NC(=O)[C@H](CO)NC(=O)[C@H](Cc1ccccc1)NC(=O)[C@H](CO)NC(C)=O)C(=O)N[C@@H](CCC(N)=O)C(=O)N[C@@H](Cc1ccc(O)cc1)C(=O)N[C@H](C(=O)N[C@@H](Cc1ccc(O)cc1)C(=O)N[C@@H](Cc1c[nH]cn1)C(=O)N[C@H](C(=O)N[C@@H](CC(=O)O)C(N)=O)C(C)C)[C@@H](C)O [P2] (Ac-SFSIQYTYHVD-NH2) | modestly increases | close to an order of magnitude higher than P3 | ca. 75% | 30 | above 10 % strain | up to 2 % strain | ca. −1.1 | up to 20 rad/s | 3.7 | 3.5 | 35.6 | 1.8
CC[C@H](C)[C@H](NC(=O)[C@H](CO)NC(=O)[C@H](Cc1ccccc1)NC(C)=O)C(=O)N[C@@H](CCC(N)=O)C(=O)N[C@@H](Cc1ccc(O)cc1)C(=O)N[C@H](C(=O)N[C@@H](Cc1ccc(O)cc1)C(=O)N[C@@H](Cc1c[nH]cn1)C(=O)N[C@H](C(=O)N[C@@H](CC(=O)O)C(N)=O)C(C)C)[C@@H](C)O [P3] (Ac-FSIQYTYHVD-NH2) | significantly increases |  | ca. 60% | 45 | > 60 % strain | ≤ 10 % strain | ca. −1.1 | up to 20 rad/s | 3.7 | 3.2 | 32.6 | 1.8
